We go through three compounds from ChEMBL document CHEMBL1240479, “Exploring benzcyclo derivatives as potent aromatase inhibitors using ligand-based modeling studies” (Eur J Med Chem, 2010).

As a reminder, the IC50 is the concentration that gives 50% inhibition. Lower therefore signals greater potency.

Structures are written as SMILES.

The assay addresses T1, Aromatase (Homo sapiens, UniProt P11511).
T1 sequence (P11511 whole entry): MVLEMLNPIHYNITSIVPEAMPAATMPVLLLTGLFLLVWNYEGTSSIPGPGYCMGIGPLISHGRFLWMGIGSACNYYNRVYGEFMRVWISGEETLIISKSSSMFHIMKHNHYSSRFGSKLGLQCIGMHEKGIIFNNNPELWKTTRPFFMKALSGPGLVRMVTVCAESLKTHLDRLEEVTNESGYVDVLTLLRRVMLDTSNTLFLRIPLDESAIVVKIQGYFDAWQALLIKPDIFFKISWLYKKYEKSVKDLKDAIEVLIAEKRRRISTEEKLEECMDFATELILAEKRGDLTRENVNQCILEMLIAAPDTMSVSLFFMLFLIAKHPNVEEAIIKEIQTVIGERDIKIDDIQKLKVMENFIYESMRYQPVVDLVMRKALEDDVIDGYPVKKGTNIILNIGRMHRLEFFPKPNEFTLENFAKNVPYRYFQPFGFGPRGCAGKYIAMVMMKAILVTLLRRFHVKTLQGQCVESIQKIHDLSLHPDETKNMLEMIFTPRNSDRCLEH
The assay can be described thus: Inhibition of aromatase.
`Brc1ccc2c(c1)CC/C2=C/c1ccncc1` registered an IC50 of 3.96 µM.

`Brc1ccc2c(c1)CCC2=Cc1ccncc1` returned an IC50 of 3.4 µM.

Regarding `C(=C(c1ccccc1)c1ccccc1)c1cccnc1`, the IC50 stood at 3.68 µM.
